This passage reports IC50 results from ChEMBL document CHEMBL5604063, “ASAP - DENV-2 NS2B-NS3 protease fluorescence dose response” (2024).

A word on the IC50: it is the concentration that inhibits the measured activity by half. The low end stands for greater potency in that assay, the high end for weaker potency in that assay.

The target in test [1] is T1, Genome polyprotein (dengue virus type 2, UniProt P29990). It counts as functional, Thailand/16681/1984.
Test [2] has as its target T1, Genome polyprotein. It counts as functional, Thailand/16681/1984. This is another data set of the same source.

Several values for one entry are separate records, joined by “and”; a condition that tells them apart may be missing. Equal entries are not always repeated. A value given as a limit tells only on which side of the number the result lay.

T1 sequence (P29990 1346-1475 limits assumed): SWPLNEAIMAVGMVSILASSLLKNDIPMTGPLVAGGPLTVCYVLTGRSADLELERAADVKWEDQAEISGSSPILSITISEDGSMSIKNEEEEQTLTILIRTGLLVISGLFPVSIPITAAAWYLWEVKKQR
T1 sequence (P29990 1476-2093 limits assumed): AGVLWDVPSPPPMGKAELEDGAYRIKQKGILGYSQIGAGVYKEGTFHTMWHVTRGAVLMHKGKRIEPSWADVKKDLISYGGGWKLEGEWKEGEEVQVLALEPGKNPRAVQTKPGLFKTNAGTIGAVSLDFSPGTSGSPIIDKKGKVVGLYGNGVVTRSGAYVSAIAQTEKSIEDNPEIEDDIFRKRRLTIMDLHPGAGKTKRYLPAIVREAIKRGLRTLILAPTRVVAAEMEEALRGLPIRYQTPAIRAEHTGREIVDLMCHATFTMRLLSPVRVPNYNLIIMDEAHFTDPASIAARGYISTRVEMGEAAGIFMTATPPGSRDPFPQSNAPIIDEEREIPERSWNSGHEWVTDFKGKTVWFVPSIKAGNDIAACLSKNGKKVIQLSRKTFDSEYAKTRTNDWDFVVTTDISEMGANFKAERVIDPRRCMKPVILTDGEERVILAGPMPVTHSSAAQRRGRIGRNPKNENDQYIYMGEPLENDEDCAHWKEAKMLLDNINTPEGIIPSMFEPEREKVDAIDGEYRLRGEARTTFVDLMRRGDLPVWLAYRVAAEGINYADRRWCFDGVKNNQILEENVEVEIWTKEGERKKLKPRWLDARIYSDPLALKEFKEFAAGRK

For the compound `Cn1cc(C(=O)N2CCC([C@H](NC(=O)OCc3ccccc3)C(=O)Nc3cccc(CN)c3)CC2)cn1`, the 50% inhibitory concentration (IC50) is greater than 99.5 µM in test [1] and greater than 100 µM in test [2].
Turning to `c1cnc2[nH]cc(C3CCN(Cc4c[nH]c5ccncc45)CC3)c2c1`, the IC50 was greater than 99.5 µM in test [1] and greater than 100 µM in test [2].
In the same order, the values of `C#C[C@H](Nc1cc([C@H]2CCOC2)ccn1)c1cc(C2CC2)n(C)n1` are greater than 99.5 µM and greater than 100 µM.
Turning to `Clc1cc(CNc2ccc3c(c2)CNC3)c2cn[nH]c2c1`, the IC50 in test [1] was 18.9 µM and 54.9 µM; in test [2], greater than 100 µM.
On to `C[C@H](CC(=O)O)NC(=O)c1cc(Cl)cc(NC(=O)OCc2ccccc2)c1`, for which the IC50 was greater than 99.5 µM in test [1] and greater than 100 µM in test [2].
In the same order, the values of `NCc1ccc(NS(=O)(=O)c2ccc(Oc3ccccc3Cl)cc2)cc1Cl` are greater than 99.5 µM and greater than 100 µM.
In the same order, the values of `NCc1cccc([C@@H]2[C@H](C(=O)O)[C@H]2c2cc(N)cc(Cl)c2)c1` are greater than 99.5 µM and greater than 100 µM.
Regarding `Cc1c(C(=O)Nc2cccc(Cn3ccccc3=O)c2)cc(C2CC2)n1C`, the IC50 in test [1] was greater than 99.5 µM; in test [2], greater than 100 µM.
In the same order, the values of `O=C(Nc1ccc2c(c1)CNC2)c1cc(F)cc2[nH]c(CC[C@H]3CCCOC3)nc12` are 76.2 µM and greater than 100 µM.
The matching figures for `Cc1c(C(=O)Nc2cc(-c3cccnc3)ccn2)cc(C2CCCC2)n1C`: greater than 99.5 µM and greater than 100 µM.
The matching figures for `Cc1cc(C(=O)Nc2cccc(CN)c2)c2cnn(-c3ccc(F)cc3)c2n1`: greater than 99.5 µM and greater than 100 µM.
Regarding `CCOCC(=O)N1CCC([C@H](NC(=O)OCc2ccccc2)C(=O)Nc2cccc(CN)c2)CC1`, the concentration for half-maximal inhibition (IC50) in test [1] was greater than 99.5 µM; in test [2] it was greater than 100 µM.
For `CNCc1cccc(NC(=O)c2cc(Cl)cc3[nH]ncc23)c1`, the IC50 in test [1] was 73.3 µM; in test [2], greater than 100 µM.
The matching figures for `CN1CCc2c(cccc2NC(=O)c2cc(Cl)cc(NC(=O)OCc3ccccc3)c2)C1`: greater than 99.5 µM and greater than 100 µM.
For the compound `Cc1c(C(=O)Nc2cc(C(=O)N3CC(CO)C3)ccn2)cc(C2CC2)n1C`, the results for the IC50 in test [1] and in test [2] were greater than 99.5 µM and greater than 100 µM, respectively.
In the same order, the values of `O=C1Cc2c(cccc2C(=O)Nc2ccc3c(c2)C(=O)OC3)N1` are greater than 99.5 µM and greater than 100 µM.
Take `O=C(Nc1ccc2c(c1)CNC2)c1cc(Cl)nc2[nH]ccc12`: the figures for the IC50 in test [1] and in test [2] were greater than 99.5 µM and greater than 100 µM, respectively.
With `C[C@H]1NCc2cc(NC(=O)c3cc(F)cc4[nH]ncc34)ccc21`, the IC50 in test [1] was 69.8 µM; in test [2], 62.2 µM and 68.2 µM.
In the case of `O=C(Nc1ccc2c(c1)CNC2)c1cccc(O)c1`, the IC50 is greater than 99.5 µM in test [1] and greater than 100 µM in test [2].
As for `O=c1ccc(N2CCN(Cc3c[nH]c4ccccc34)CC2)n[nH]1`, the IC50 in test [1] was greater than 99.5 µM; in test [2], greater than 100 µM.
On to `NCc1cn(CCNC(=O)c2cc(Cl)cc(NC(=O)OCc3ccccc3)c2)nn1`, for which the values for the IC50 in test [1] and in test [2] were greater than 99.5 µM and greater than 100 µM, respectively.
In the same order, the values of `O=C1Cc2c(cc(Br)cc2C(=O)Nc2ccc3c(c2)C(=O)OC3)N1` are greater than 99.5 µM and greater than 100 µM.
Consider `CC[C@H](Cc1nnn[nH]1)c1ccc(NC(=O)[C@H]2[C@H]3CCCCC[C@H]3[C@H]2NC(=O)OCc2ccccc2)cc1`, for which the IC50 in test [1] was 22.9 µM; in test [2], 13 µM and 16.4 µM.
With `Cc1c(C(=O)Nc2ccc3c(c2)C(=O)NC3)cc(C2CC2)n1C`, the IC50 in test [1] is greater than 99.5 µM; in test [2] it was greater than 100 µM.
Regarding `Cc1ccc(-c2nc3c(C(=O)Nc4ccc5c(c4)CNC5)cc(F)cc3[nH]2)cc1`, the IC50 in test [1] is 16.4 µM and 39.9 µM; in test [2] it was 70.2 µM.
Turning to `CCc1cc(C(=O)Nc2ccc3c(c2)CNC3)sc1-c1ccc(Cl)cc1`, the IC50 was greater than 99.5 µM in test [1] and greater than 100 µM in test [2].
For `Cc1c(C(=O)Nc2cccc(Cn3cccn3)c2)cc(C2CC2)n1C`, the IC50 in test [1] was greater than 99.5 µM; in test [2] it was greater than 100 µM.
The matching figures for `CCO[C@@H]1CC[C@H]1NC(=O)c1cccc2c1CC(=O)N2`: greater than 99.5 µM and greater than 100 µM.
The matching figures for `O=C1Cc2c(cccc2C(=O)N[C@H]2CCc3ncsc3C2)N1`: greater than 99.5 µM and greater than 100 µM.
In the same order, the values of `O=C(Nc1cc(Cl)cc(C(=O)Nc2cc(C(=O)O)ccn2)c1)OCc1ccccc1` are greater than 99.5 µM and 35.6 µM.
Turning to `O=C(Nc1cc(Cl)cc([C@H]2C[C@@H]2c2cccc(C3CCNCC3)c2)c1)OCc1ccccc1`, the IC50 in test [1] was 6.78 µM and 6.9 µM; in test [2], 54.1 µM and 34.5 µM.
Turning to `O=C(Nc1cc(Cl)cc(C(=O)NCc2ccc(-c3nnn[nH]3)cc2)c1)OCc1ccccc1`, the IC50 in test [1] was 21 µM; in test [2], 11.7 µM and 9.92 µM.
`O=C1NCc2ccc(NC(=O)c3cc(Cl)cc4[nH]ncc34)cc21`: the IC50 in test [1] is greater than 99.5 µM; in test [2] it was greater than 100 µM.
The matching figures for `O=C(O)c1cc2cc(-c3cc(Cl)cn4ncnc34)ccc2[nH]1`: greater than 99.5 µM and greater than 100 µM.
Turning to `O=C(NCC(F)F)[C@H](Nc1ccc2c(c1)CNC2)c1cc(Br)ccc1Oc1ccc(Cl)c(Cl)c1`, the IC50 in test [1] is greater than 99.5 µM; in test [2], greater than 100 µM.
The matching figures for `O=C(Nc1cc(Cl)cc(C(=O)N[C@H](c2nn[nH]n2)C2CCNCC2)c1)OCc1ccccc1`: greater than 99.5 µM and greater than 100 µM.
Regarding `NCc1cccc(NC(=O)c2cc(C3CC3)nc3ccc(Cl)cc23)c1`, the IC50 was greater than 99.5 µM in test [1] and greater than 100 µM in test [2].
In the same order, the values of `CCn1c(=O)c(N2CC[C@@H](CO)C2)nc2ccc(C(=O)O)cc21` are greater than 99.5 µM and greater than 100 µM.
As to `NCc1cccc([C@H]2C[C@@H]2c2cc(Cl)cc(NC(=O)OCc3ccccc3)c2)c1`, the IC50 in test [1] was 41 µM and 25.9 µM and 30 µM; in test [2] it was greater than 100 µM.
`O=C1Cc2c(cccc2C(=O)N[C@H]2CC[C@@H](n3ccnn3)CC2)N1`: the IC50 is greater than 99.5 µM in test [1] and greater than 100 µM in test [2].
In the same order, the values of `NCCCc1ccnc(NC(=O)c2cc(C3CC3)no2)c1` are greater than 99.5 µM and greater than 100 µM.
The matching figures for `NCc1cccc(NC(=O)c2cc(Cl)cc(NC(=O)NCc3ccccc3)c2)c1`: greater than 99.5 µM and greater than 100 µM.
In the same order, the values of `CC(C)(C)OC(=O)NCc1ccc(I)c(NC(=O)c2cc(Cl)cc(NC(=O)OCc3ccccc3)c2)c1` are greater than 99.5 µM and greater than 100 µM.
With `O=C(Nc1cc(Cl)cc(C(=O)Nc2cccc(-c3cn[nH]n3)c2)c1)OCc1ccccc1`, the concentration for half-maximal inhibition (IC50) is 55.7 µM in test [1] and greater than 100 µM in test [2].
Take `COc1cc(-c2cc(Cl)cc(NC(=O)OCc3ccccc3)c2)c(OC)cc1CC(=O)O`: the IC50 in test [1] is 32.8 µM; in test [2] it was 18.4 µM and 18.3 µM.
On to `Cn1nc(C(F)(F)F)cc1C(=O)Nc1cc(-c2cccnc2)ccn1`, for which the IC50 in test [1] was greater than 99.5 µM; in test [2], greater than 100 µM.
With `NCc1cc(Cl)cc(C(=O)Nc2cccc(C3CCNCC3)c2)c1`, the IC50 in test [1] was greater than 99.5 µM; in test [2], greater than 100 µM.
In the same order, the values of `CNC(=O)[C@H](Nc1cccc(N)n1)c1cc(Cl)cc(CNC(=O)OC(C)(C)C)c1` are greater than 99.5 µM and greater than 100 µM.
For the compound `O=C(Nc1ccc2c(c1)CN[C@H]2[C@H](O)CO)c1cc(F)cc2[nH]ncc12`, the IC50 is greater than 99.5 µM in test [1] and greater than 100 µM in test [2].
In the same order, the values of `CC(=O)N1CCC([C@H](NC(=O)OCc2ccccc2)C(=O)Nc2cccc(CN)c2)CC1` are greater than 99.5 µM and greater than 100 µM.
The matching figures for `Cn1nc2c(c1NC(=O)c1cc(Cl)cc(NC(=O)OCc3ccccc3)c1)CCNC2`: greater than 99.5 µM and greater than 100 µM.
In the same order, the values of `O=C(Nc1ccc2c(c1)CNC2)c1cc(Cl)cc2[nH]c(C3(n4ccnn4)CC3)nc12` are greater than 99.5 µM and greater than 100 µM.
`CC(=Cc1cc(Cl)cc(NC(=O)OCc2ccccc2)c1)c1cccc(CN)c1`: the IC50 in test [1] was 23.4 µM; in test [2], greater than 100 µM.
As for `O=C(Nc1ccc2c(c1)CNC2)c1cc(Cl)cc2[nH]c(-c3ccnn3C3CC3)nc12`, the IC50 in test [1] is 25.2 µM; in test [2], greater than 100 µM.
In the same order, the values of `O=C(Nc1ccc2c(c1)CNC2)c1cc(Br)cc2[nH]c([C@H]3CCOC3)nc12` are 98.5 µM and greater than 100 µM.
The matching figures for `N#C[C@]1(Nc2ccc3c(c2)CNC3)C(=O)Nc2ccc(Cl)cc21`: greater than 99.5 µM and greater than 100 µM.
The matching figures for `O=C(NCCc1nc2ccccc2[nH]1)c1cc2ccc(F)cc2s1`: greater than 99.5 µM and greater than 100 µM.
With `NCc1cc(C(=O)N2CCNC(=O)C2)cc([C@@H]2C[C@H]2c2cc(Cl)cc(NC(=O)OCc3ccccc3)c2)c1`, the IC50 was 49.1 µM in test [1] and greater than 100 µM in test [2].
In the same order, the values of `N#C[C@]1(Nc2ccc3c(c2)CNC3)C(=O)Nc2ccccc21` are greater than 99.5 µM and greater than 100 µM.
With `C=CC[C@H](Nc1cccc(Cl)c1)c1cccc(-c2nn[nH]n2)c1`, the IC50 in test [1] was greater than 99.5 µM; in test [2], 41.5 µM and 38.9 µM.
Consider `CC(C)(C)O[C@H]1CCCN(C(=O)Nc2ccc3c(c2)CNC3)C1`, for which the values for the concentration for half-maximal inhibition (IC50) in test [1] and in test [2] were greater than 99.5 µM and greater than 100 µM, respectively.
Turning to `Clc1cc([C@@H]2C[C@H]2c2cccc(-c3nn[nH]n3)c2)c2cn[nH]c2c1`, the IC50 in test [1] is 66.2 µM; in test [2], 20.4 µM and 23.8 µM.
`O=C(Nc1ccc2c(c1)CNC2)c1cc(F)cc2c1CCNC2`: the IC50 in test [1] was greater than 99.5 µM; in test [2], greater than 100 µM.
The matching figures for `N#Cc1cccc(-c2nc3c(C(=O)Nc4ccccn4)cc(Cl)cc3[nH]2)c1`: 28.9 µM and greater than 100 µM.
The matching figures for `C[C@H]1NCCc2c(-c3ccc4[nH]c(C(=O)O)cc4c3)cc(F)cc21`: greater than 99.5 µM and greater than 100 µM.
For `CC(C)n1cc2c(C(=O)Nc3ccc4c(c3)CNC4)cc(Cl)cc2n1`, the IC50 in test [1] is greater than 99.5 µM; in test [2], greater than 100 µM.
Consider `CCc1cc2c(cc1NC(=O)c1cc(F)cc3[nH]ncc13)CNC2`, for which the IC50 is greater than 99.5 µM in test [1] and greater than 100 µM in test [2].
Take `N#Cc1cccc(-c2nc3c(C(=O)Nc4ccc5c(c4)CNC5)cc(F)cc3[nH]2)c1`: the IC50 in test [1] is 6.2 µM and 4.83 µM; in test [2], 10.9 µM and 29.7 µM.
